The results in this text go back to publication PMC4974627 (Biochemistry, 2016).

The target of experiment [1] is AtGSNOR (Arabidopsis GSNOR) (Arabidopsis thaliana, UniProt Q96533, C271A). The experiment can be described thus: intact protein mass spectrometry. In kind it is binding. To be noted: covalent (S-nitrosation).
Experiment [2] deals with ScSFA1 (yeast GSNOR, Sensitive to Formaldehyde 1) (Saccharomyces cerevisiae, UniProt P32771, C12A). The experiment can be described thus: residual activity after CysNO versus CysSH treatment. Format: biochemical. To be noted: covalent (S-nitrosation); 2 mM CysNO.
Sequence of ScSFA1 (yeast GSNOR, Sensitive to Formaldehyde 1) (P32771 whole entry C12A): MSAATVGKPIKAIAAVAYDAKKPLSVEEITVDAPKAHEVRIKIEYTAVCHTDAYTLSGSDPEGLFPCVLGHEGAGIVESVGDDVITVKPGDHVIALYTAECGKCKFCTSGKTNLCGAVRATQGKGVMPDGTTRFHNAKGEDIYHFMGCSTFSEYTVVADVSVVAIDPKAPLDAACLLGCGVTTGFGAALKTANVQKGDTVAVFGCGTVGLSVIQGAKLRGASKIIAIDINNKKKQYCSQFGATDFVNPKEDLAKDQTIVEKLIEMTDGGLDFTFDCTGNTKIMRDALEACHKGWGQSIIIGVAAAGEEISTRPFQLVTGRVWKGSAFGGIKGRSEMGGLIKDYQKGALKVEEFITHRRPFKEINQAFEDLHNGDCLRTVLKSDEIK
The target in experiment [3] is AtGSNOR (Arabidopsis GSNOR) (Arabidopsis thaliana, UniProt Q96533, C370A). Kind of experiment: intact protein mass spectrometry. Format: binding. To be noted: covalent (S-nitrosation).
Sequence of AtGSNOR (Arabidopsis GSNOR) (Arabidopsis thaliana, UniProt Q96533, C370A) (Q96533 2-379 C370A): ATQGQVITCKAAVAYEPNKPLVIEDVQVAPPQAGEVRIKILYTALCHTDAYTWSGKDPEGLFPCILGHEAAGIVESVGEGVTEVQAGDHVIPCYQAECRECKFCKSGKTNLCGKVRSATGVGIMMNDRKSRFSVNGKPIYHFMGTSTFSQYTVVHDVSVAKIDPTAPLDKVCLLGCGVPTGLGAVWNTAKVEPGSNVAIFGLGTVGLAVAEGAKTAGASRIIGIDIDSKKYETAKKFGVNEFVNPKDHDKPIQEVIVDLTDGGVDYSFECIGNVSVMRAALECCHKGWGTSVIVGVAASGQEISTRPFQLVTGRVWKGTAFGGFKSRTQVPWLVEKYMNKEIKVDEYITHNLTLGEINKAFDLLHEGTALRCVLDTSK
The target of experiment [4] is T1, AtGSNOR (Arabidopsis GSNOR) (Arabidopsis thaliana, UniProt Q96533). The experiment can be described thus: residual GSNO reductase activity after CysNO incubation. To be noted: covalent (S-nitrosation of Cys10, Cys271, Cys370), reversible by DTT; one hour. In kind it is biochemical.
T1 sequence (Q96533 2-379): as the sequence (Q96533 2-379 C370A) above, with A369C counted along it
Experiment [5] deals with T1, AtGSNOR (Arabidopsis GSNOR). The experiment can be described thus: time-dependent loss of activity on GSNO incubation. Format: biochemical. To be noted: covalent (presumed S-nitrosation); 1 mM GSNO, 20 µM protein.

Sequence of AtGSNOR (Arabidopsis GSNOR) (Arabidopsis thaliana, UniProt Q96533, C271A) (Q96533 2-379 C271A): as the sequence (Q96533 2-379 C370A) above, with C270A, A369C counted along it

Take `N[C@@H](CSN=O)C(=O)O` [CysNO]: the “intact protein mass spectrometry (+29 Da adducts)” value in experiment [1] is reported as “only two adducts were observed for single cysteine mutants (Fig. 2F, H, J)”; in experiment [3], “only two adducts were observed for single cysteine mutants (Fig. 2F, H, J)”. For the same compound, the “residual activity after CysNO versus CysSH treatment” value in experiment [2] was “ScSFA1^C12A and HsGSNOR^C8A were as sensitive to nitrosation as their corresponding wild-types”. Moreover, the “% decrease in activity at 125 μM” value in experiment [4] is ~ 40%.

For `N[C@@H](CCC(=O)N[C@@H](CSN=O)C(=O)NCC(=O)O)C(=O)O` [GSNO], the “time-dependent loss of activity on GSNO incubation” value in experiment [5] is “Incubation with GSNO caused a time-dependent decrease in the specific activity of unmodified AtGSNOR”.
